Measurements as given in patent US20260130395A1, “Water Dispersible Botanical Compositions” (Aquila Black Limited, priority 2021, published 2026).

Assays:
[1] = Stability of cannabinoid entourage and Vitamin E components of the powder concentrate by LCMSMS; assay type: physicochemical; settings: powder stored at 21-25° C.
Method: At each time period, 0.05 g of powder was dissolved in 10 ml-15 of ethanol, diluted to fall within the analytical range, and injected into the LCMSMS for analysis.

[2] = Stability of cannabinoid compounds and Vitamin E components in Beverage 1 (AB White) by LCMSMS; assay type: physicochemical
Method: The stability of the plant-derived cannabinoid compounds and Vitamin E components of the beverage stored 8° C. and at room temperature (21-25° C.) were monitored, over a period of 570 days via Liquid Chromatography-tandem Mass Spectrometry [LCMSMS, Agilent 6590, C18, 3×50 mm, 2.7 m (Agilent InfinityLab Poroshell 120 EC-C18), Electrospray Ionization detector]. The LCMSMS was calibrated for 0-1000 ng/ml cannabinoids with the same resin material used in the preparation of the concentrates. At each time period, 100 ml of beverage was diluted with 10 ml of methanol and injected into the LCMSMS for analysis.

Cc1c(C)c2c(c(C)c1OC(=O)CCC(=O)O)CC[C@@](C)(CCC[C@H](C)CCC[C@H](C)CCCC(C)C)O2 [α-Tocopheryl succinate]
Stability of Vitamin Es in Powder Concentrate ([1]; 0 days): 1.82 mg/g powder
Stability of Vitamin Es in Powder Concentrate ([1]; 1 days): 1.81 mg/g powder
Stability of Vitamin Es in Powder Concentrate ([1]; 2 days): 1.81 mg/g powder
Stability of Vitamin Es in Powder Concentrate ([1]; 3 days): 1.81 mg/g powder
Stability of Vitamin Es in Powder Concentrate ([1]; 5 days): 1.83 mg/g powder
Stability of Vitamin Es in Powder Concentrate ([1]; 8 days): 1.90 mg/g powder
Stability of Vitamin Es in Powder Concentrate ([1]; 9 days): 1.89 mg/g powder
Stability of Vitamin Es in Powder Concentrate ([1]; 10 days): 1.87 mg/g powder
Stability of Vitamin Es in Powder Concentrate ([1]; 11 days): 1.89 mg/g powder
Stability of Vitamin Es in Powder Concentrate ([1]; 12 days): 1.87 mg/g powder
Stability of Vitamin Es in Powder Concentrate ([1]; 15 days): 1.87 mg/g powder
Stability of Vitamin Es in Powder Concentrate ([1]; 16 days): 1.83 mg/g powder
Stability of Vitamin Es in Powder Concentrate ([1]; 17 days): 1.88 mg/g powder
Stability of Vitamin Es in Powder Concentrate ([1]; 18 days): 1.77 mg/g powder
Stability of Vitamin Es in Powder Concentrate ([1]; 19 days): 1.85 mg/g powder
Stability of Vitamin Es in Powder Concentrate ([1]; 22 days): 1.78 mg/g powder
Stability of Vitamin Es in Powder Concentrate ([1]; 23 days): 1.80 mg/g powder
Stability of Vitamin Es in Powder Concentrate ([1]; 24 days): 1.90 mg/g powder
Stability of Vitamin Es in Powder Concentrate ([1]; 25 days): 1.90 mg/g powder
Stability of Vitamin Es in Powder Concentrate ([1]; 26 days): 1.76 mg/g powder
Stability of Vitamin Es in Powder Concentrate ([1]; 29 days): 1.87 mg/g powder
Stability of Vitamin Es in Powder Concentrate ([1]; 30 days): 1.80 mg/g powder
Stability of Vitamin Es in Powder Concentrate ([1]; 60 days): 1.77 mg/g powder
Stability of Vitamin Es in Powder Concentrate ([1]; 90 days): 1.83 mg/g powder
Stability of Vitamin Es in Powder Concentrate ([1]; 120 days): 1.83 mg/g powder
Stability of Vitamin Es in Powder Concentrate ([1]; 150 days): 1.89 mg/g powder
Stability of Vitamin Es in Powder Concentrate ([1]; 180 days): 1.77 mg/g powder
Stability of Vitamin Es in Powder Concentrate ([1]; 210 days): 1.80 mg/g powder
Stability of Vitamin Es in Powder Concentrate ([1]; 240 days): 1.84 mg/g powder
Stability of Vitamin Es in Powder Concentrate ([1]; 270 days): 1.87 mg/g powder
Stability of Vitamin Es in Powder Concentrate ([1]; 300 days): 1.84 mg/g powder
Stability of Vitamin Es in Powder Concentrate ([1]; 330 days): 1.83 mg/g powder
Stability of Vitamin Es in Powder Concentrate ([1]; 360 days): 1.79 mg/g powder
Stability of Vitamin Es in Powder Concentrate ([1]; 390 days): 1.87 mg/g powder
Stability of Vitamin Es in Powder Concentrate ([1]; 420 days): 1.82 mg/g powder
Stability of Vitamin Es in Powder Concentrate ([1]; 450 days): 1.80 mg/g powder
Stability of Vitamin Es in Powder Concentrate ([1]; 480 days): 1.76 mg/g powder
Stability of Vitamin Es in Powder Concentrate ([1]; 510 days): 1.76 mg/g powder
Stability of Vitamin Es in Powder Concentrate ([1]; 540 days): 1.80 mg/g powder
Stability of Vitamin Es in Powder Concentrate ([1]; 570 days): 1.77 mg/g powder
Stability of Vitamin Es in AB White ([2]; stored at 8° C., 0 days): 12.8 µg/mL
Stability of Vitamin Es in AB White ([2]; stored at 8° C., 1 days): 11.83 µg/mL
Stability of Vitamin Es in AB White ([2]; stored at 8° C., 2 days): 12.31 µg/mL
Stability of Vitamin Es in AB White ([2]; stored at 8° C., 3 days): 11.94 µg/mL
Stability of Vitamin Es in AB White ([2]; stored at 8° C., 5 days): 11.44 µg/mL
Stability of Vitamin Es in AB White ([2]; stored at 8° C., 8 days): 11.48 µg/mL
Stability of Vitamin Es in AB White ([2]; stored at 8° C., 9 days): 12.08 µg/mL
Stability of Vitamin Es in AB White ([2]; stored at 8° C., 10 days): 12.28 µg/mL
Stability of Vitamin Es in AB White ([2]; stored at 8° C., 11 days): 11.94 µg/mL
Stability of Vitamin Es in AB White ([2]; stored at 8° C., 12 days): 12.41 µg/mL
Stability of Vitamin Es in AB White ([2]; stored at 8° C., 15 days): 11.56 µg/mL
Stability of Vitamin Es in AB White ([2]; stored at 8° C., 16 days): 12.09 µg/mL
Stability of Vitamin Es in AB White ([2]; stored at 8° C., 17 days): 11.60 µg/mL
Stability of Vitamin Es in AB White ([2]; stored at 8° C., 18 days): 11.59 µg/mL
Stability of Vitamin Es in AB White ([2]; stored at 8° C., 19 days): 11.89 µg/mL
Stability of Vitamin Es in AB White ([2]; stored at 8° C., 22 days): 11.81 µg/mL
Stability of Vitamin Es in AB White ([2]; stored at 8° C., 23 days): 11.46 µg/mL
Stability of Vitamin Es in AB White ([2]; stored at 8° C., 24 days): 11.75 µg/mL
Stability of Vitamin Es in AB White ([2]; stored at 8° C., 25 days): 12.41 µg/mL
Stability of Vitamin Es in AB White ([2]; stored at 8° C., 26 days): 11.64 µg/mL
Stability of Vitamin Es in AB White ([2]; stored at 8° C., 29 days): 12.43 µg/mL
Stability of Vitamin Es in AB White ([2]; stored at 8° C., 30 days): 11.78 µg/mL
Stability of Vitamin Es in AB White ([2]; stored at 8° C., 60 days): 12.18 µg/mL
Stability of Vitamin Es in AB White ([2]; stored at 8° C., 90 days): 11.33 µg/mL
Stability of Vitamin Es in AB White ([2]; stored at 8° C., 120 days): 11.31 µg/mL
Stability of Vitamin Es in AB White ([2]; stored at 8° C., 150 days): 12.29 µg/mL
Stability of Vitamin Es in AB White ([2]; stored at 8° C., 180 days): 11.74 µg/mL
Stability of Vitamin Es in AB White ([2]; stored at 8° C., 210 days): 11.40 µg/mL
Stability of Vitamin Es in AB White ([2]; stored at 8° C., 240 days): 11.70 µg/mL
Stability of Vitamin Es in AB White ([2]; stored at 8° C., 270 days): 11.24 µg/mL
Stability of Vitamin Es in AB White ([2]; stored at 8° C., 300 days): 11.53 µg/mL
Stability of Vitamin Es in AB White ([2]; stored at 8° C., 330 days): 11.81 µg/mL
Stability of Vitamin Es in AB White ([2]; stored at 8° C., 360 days): 11.10 µg/mL
Stability of Vitamin Es in AB White ([2]; stored at 8° C., 390 days): 11.34 µg/mL
Stability of Vitamin Es in AB White ([2]; stored at 8° C., 420 days): 11.30 µg/mL
Stability of Vitamin Es in AB White ([2]; stored at 8° C., 450 days): 11.28 µg/mL
Stability of Vitamin Es in AB White ([2]; stored at 8° C., 480 days): 10.58 µg/mL
Stability of Vitamin Es in AB White ([2]; stored at 8° C., 510 days): 10.83 µg/mL
Stability of Vitamin Es in AB White ([2]; stored at 8° C., 540 days): 10.58 µg/mL
Stability of Vitamin Es in AB White ([2]; stored at 8° C., 570 days): 10.93 µg/mL
Stability of Vitamin Es in AB White ([2]; stored at 21-25° C., 0 days): 12.8 µg/mL
Stability of Vitamin Es in AB White ([2]; stored at 21-25° C., 1 days): 12.6 µg/mL
Stability of Vitamin Es in AB White ([2]; stored at 21-25° C., 2 days): 12.3 µg/mL
Stability of Vitamin Es in AB White ([2]; stored at 21-25° C., 3 days): 12.0 µg/mL
Stability of Vitamin Es in AB White ([2]; stored at 21-25° C., 5 days): 12.0 µg/mL
Stability of Vitamin Es in AB White ([2]; stored at 21-25° C., 8 days): 11.9 µg/mL
Stability of Vitamin Es in AB White ([2]; stored at 21-25° C., 9 days): 12.7 µg/mL
Stability of Vitamin Es in AB White ([2]; stored at 21-25° C., 10 days): 12.5 µg/mL
Stability of Vitamin Es in AB White ([2]; stored at 21-25° C., 11 days): 11.8 µg/mL
Stability of Vitamin Es in AB White ([2]; stored at 21-25° C., 12 days): 11.6 µg/mL
Stability of Vitamin Es in AB White ([2]; stored at 21-25° C., 15 days): 12.6 µg/mL
Stability of Vitamin Es in AB White ([2]; stored at 21-25° C., 16 days): 11.7 µg/mL
Stability of Vitamin Es in AB White ([2]; stored at 21-25° C., 17 days): 13.0 µg/mL
Stability of Vitamin Es in AB White ([2]; stored at 21-25° C., 18 days): 12.9 µg/mL
Stability of Vitamin Es in AB White ([2]; stored at 21-25° C., 19 days): 12.3 µg/mL
Stability of Vitamin Es in AB White ([2]; stored at 21-25° C., 22 days): 12.2 µg/mL
Stability of Vitamin Es in AB White ([2]; stored at 21-25° C., 23 days): 12.3 µg/mL
Stability of Vitamin Es in AB White ([2]; stored at 21-25° C., 24 days): 12.5 µg/mL
Stability of Vitamin Es in AB White ([2]; stored at 21-25° C., 25 days): 12.4 µg/mL
Stability of Vitamin Es in AB White ([2]; stored at 21-25° C., 26 days): 12.2 µg/mL
Stability of Vitamin Es in AB White ([2]; stored at 21-25° C., 29 days): 12.4 µg/mL
Stability of Vitamin Es in AB White ([2]; stored at 21-25° C., 30 days): 12.0 µg/mL
Stability of Vitamin Es in AB White ([2]; stored at 21-25° C., 60 days): 11.9 µg/mL
Stability of Vitamin Es in AB White ([2]; stored at 21-25° C., 90 days): 11.9 µg/mL
Stability of Vitamin Es in AB White ([2]; stored at 21-25° C., 120 days): 12.1 µg/mL
Stability of Vitamin Es in AB White ([2]; stored at 21-25° C., 150 days): 12.7 µg/mL
Stability of Vitamin Es in AB White ([2]; stored at 21-25° C., 180 days): 11.6 µg/mL
Stability of Vitamin Es in AB White ([2]; stored at 21-25° C., 210 days): 11.5 µg/mL
Stability of Vitamin Es in AB White ([2]; stored at 21-25° C., 240 days): 11.5 µg/mL
Stability of Vitamin Es in AB White ([2]; stored at 21-25° C., 270 days): 11.2 µg/mL
Stability of Vitamin Es in AB White ([2]; stored at 21-25° C., 300 days): 11.4 µg/mL
Stability of Vitamin Es in AB White ([2]; stored at 21-25° C., 330 days): 11.3 µg/mL
Stability of Vitamin Es in AB White ([2]; stored at 21-25° C., 360 days): 11.5 µg/mL
Stability of Vitamin Es in AB White ([2]; stored at 21-25° C., 390 days): 11.3 µg/mL
Stability of Vitamin Es in AB White ([2]; stored at 21-25° C., 420 days): 11.6 µg/mL
Stability of Vitamin Es in AB White ([2]; stored at 21-25° C., 450 days): 11.5 µg/mL
Stability of Vitamin Es in AB White ([2]; stored at 21-25° C., 480 days): 10.8 µg/mL
Stability of Vitamin Es in AB White ([2]; stored at 21-25° C., 510 days): 10.9 µg/mL
Stability of Vitamin Es in AB White ([2]; stored at 21-25° C., 540 days): 10.9 µg/mL
Stability of Vitamin Es in AB White ([2]; stored at 21-25° C., 570 days): 10.6 µg/mL
